Test results taken from ChEMBL document CHEMBL1127398, “(-)-11-Hydroxy-7'-isothiocyanato-1',1'-dimethylheptyl-delta 8-THC: a novel, high-affinity irreversible probe for the cannabinoid receptor in the brain” (J Med Chem, 1994).

Molecular target: Cannabinoid receptor (Rattus norvegicus, UniProt Q9QZN9+P20272)
Assay: Tested for affinity of compound against cannabinoid receptor in rat forebrain membranes
Assay type: cell membranes, Membrane

SMILES | IC50 [nM]
CC1=CC2c3c(O)cc(CCCCN=[N+]=[N-])cc3OC(C)(C)[C@H]2CC1 (some centres not stated) | 31
CCc1cc(C(C)(C)CCCCCCN=C=S)cc2c1[C@@H]1CC(CO)=CC[C@H]1C(C)(C)O2 | 1.6
